Test results reported in PMC6152127, “Facile Synthesis of Novel Coumarin Derivatives, Antimicrobial Analysis, Enzyme Assay, Docking Study, ADMET Prediction and Toxicity Study” (Molecules : A Journal of Synthetic Chemistry and Natural …, 2017).
In brackets after ≈: the same amount, converted by molar mass.

What was measured:
[1] = test system: Aspergillus flavus (NCIM-539); test: In vitro antifungal activity, MIC, agar method (CLSI); format: cell-based; details: NCIM539, average of three readings
Description: (§1) The newly synthesized 3-((dicyclohexylamino)(substituted phenyl/heteryl)methyl)-4-hydroxy-2H-chromen-2-one derivatives 4a–o were screened for their in vitro antifungal activity against different yeast and filamentous fungal pathogens. […] Dimethyl sulfoxide (DMSO) was used as solvent control.
(§2) All the synthesized compounds were screened for their in vitro antifungal and antibacterial activity. The antibacterial activity was evaluated against three human pathogenic bacterial strains: Escherichia coli (NCIM-2256), Bacillus subtilis (NCIM-2063) and Staphylococcus aureus (NCIM-2901). The antifungal activity was evaluated against seven human pathogenic fungal strains: Candida albicans (NCIM-3471), Candida glabrata (NCYC-388), Fusarium oxysporum (NCIM-1332), Aspergillus fumigates (NCIM-902), Aspergillus flavus (NCIM-539), Aspergillus niger (NCIM-1196) and Cryptococcus neoformans (NCIM-576), which are often encountered clinically. […] Minimum inhibitory concentration (MIC) values were determined as per CLSI guidelines. Dimethyl sulfoxide (DMSO) was used as solvent control.
(§3) Antifungal activity was determined as per CLSI (formerly, NCCLS) guidelines. […] The medium yeast nitrogen base was dissolved in phosphate buffer pH 7 and it was autoclaved at 110 °C for 10 min. With each set a growth control without the antifungal agent and solvent control DMSO were included. The fungal strains were freshly sub cultured on to Sabouraud dextrose agar (SDA) and incubated at 25 °C for 72 h. The fungal cells were suspended in sterile distilled water and diluted to get 10^5 cells/mL. Ten μL of the standardized suspension was inoculated onto the control plates and the media incorporated with the antifungal agents. The inoculated plates were incubated at 25 °C for 48 h. The readings were taken at the end of 48 h and 72 h. The MIC was the lowest concentration of drug preventing growth of macroscopically visible colonies on drug containing plates when there was visible growth on the drug free control plates.

[2] = test system: Aspergillus fumigates (NCIM-902); test: as above; format: cell-based; details: NCIM902, average of three readings
Description: as §1, §2, §3

[3] = test system: Aspergillus niger (NCIM-1196); test: as above; format: cell-based; details: NCIM1196, average of three readings
Description: as §1, §2, §3

[4] = test system: Candida albicans (NCIM-3471); test: as above; format: cell-based; details: NCIM3471, average of three readings
Description: as §1, §2, §3

[5] = test system: Candida glabrata (NCYC-388); test: as above; format: cell-based; details: Nakaseomyces glabratus; average of three readings
Description: as §1, §2, §3

[6] = test system: Cryptococcus neoformans (NCIM-576); test: as above; format: cell-based; details: NCIM576, average of three readings
Description: as §1, §2, §3

[7] = test system: Fusarium oxysporum (NCIM-1332); test: as above; format: cell-based; details: NCIM1332, average of three readings
Description: as §1, §2, §3

[8] = test system: Bacillus subtilis (NCIM-2063); test: In vitro antibacterial activity, MIC; format: cell-based; details: average of three readings; for MIC: Bacillus subtilis, NCIM2063
Description: (§4) The newly synthesized compounds 4a–o were screened for their in vitro antibacterial activity against the three different bacterial strains. Minimum inhibitory concentration (MIC) values for antibacterial activity were determined by standard agar method using Ampicillin as standard drug. Dimethyl sulfoxide (DMSO) was used as solvent control. […] Compound 4e bearing a 2,4-difluoro group on the phenyl ring was 48 µg/mL for E. coli, 50 µg/mL for B. subtilis and 52 µg/mL for S. aureus.
(§5) All the synthesized compounds were screened for their in vitro antifungal and antibacterial activity. The antibacterial activity was evaluated against three human pathogenic bacterial strains: Escherichia coli (NCIM-2256), Bacillus subtilis (NCIM-2063) and Staphylococcus aureus (NCIM-2901). The antifungal activity was evaluated against seven human pathogenic fungal strains: Candida albicans (NCIM-3471), Candida glabrata (NCYC-388), Fusarium oxysporum (NCIM-1332), Aspergillus fumigates (NCIM-902), Aspergillus flavus (NCIM-539), Aspergillus niger (NCIM-1196) and Cryptococcus neoformans (NCIM-576), which are often encountered clinically. Miconazole was used as standard drug. Minimum inhibitory concentration (MIC) values were determined as per CLSI guidelines. Dimethyl sulfoxide (DMSO) was used as solvent control.
(§6) All the synthesized compounds 4a–o were screened for their in vitro antibacterial activity. Minimum inhibitory concentration (MIC) values were determined using method recommended by National Committee for Clinical Laboratory Standards (NCCLS). In vitro antibacterial activities of the synthesized compounds 4a–o were tested in Nutrient Broth (NB) for bacteria by the two fold serial dilution method. Seeded broth (broth containing microbial spores) was prepared in NB from 24 h old bacterial cultures on nutrient agar (Hi-media) at 37± 1 °C. The bacterial suspension was adjusted with sterile saline to a concentration of 1× 10^−4–10^−5 C.F.U. The synthesized compounds and standard drug Ampicillin were prepared by two fold serial dilutions to obtain the required concentrations of 400, 200, 100, 50, 25, 12.5, 6.25 and 3.13 μg/mL. The tubes were incubated in BOD incubators at 37± 1 °C for bacteria. The MICs were recorded by visual observations after 24 h (for bacteria) of incubation.

[9] = test system: Escherichia coli (NCIM-2256); test: In vitro antibacterial activity, MIC; format: cell-based; details: average of three readings; for MIC: Escherichia coli, NCIM2256
Description: as §4, §5, §6

[10] = test system: Staphylococcus aureus (NCIM-2901); test: In vitro antibacterial activity, MIC; format: cell-based; details: average of three readings; for MIC: Staphylococcus aureus, NCIM2901
Description: as §4, §5, §6

[11] = test system: HeLa (Human cervical cancer cell line); test: In vitro cytotoxicity, Sulforhodamine B (SRB) assay; format: cell-based; details: for GI50: Homo sapiens, HeLa, SRB assay, concentration range 50 to 0.78 μg/mL; for cell inhibition HeLa: up to 50 µg/mL concentration, Figure 4
Description: To examine the safety of the synthesized compounds, the compounds 4e and 4k were evaluated for their toxicity against the HeLa human cervical cancer cell line by a Sulforhodamine B (SRB) assay using Adriamycin as a standard drug.
In vitro cytotoxicity study of the synthesized compounds 4e and 4k was performed against HeLa (Human cervical cancer cell line) by Sulforhodamine B (SRB) assay using Adriamycin as positive control. The images were captured using an Eclipse Ti-S Inverted Research Microscope (Nikon, Tokyo, Japan). Image processing software used was NIS-Elements.

Swiss albino mice = test: In vivo acute oral toxicity study and behavioral study (OECD guideline no. 425); set-up: key to Straub Tail / Pilo Erection / Convulsions / Normal Motor Activity / Stereotypy / Tremors / Sedation / Hypnosis / Muscle Spasms / Toxicity / Deaths / Eye Lacrimation / Salivation / Diarrhea / Respiration Problems: N: no; Y: yes; details: for Convulsions / Deaths / Diarrhea / Eye Lacrimation / Hypnosis / Muscle Spasms / Normal Motor Activity / Pilo Erection / Respiration Problems / Salivation / Sedation / Stereotypy / Straub Tail / Toxicity / Tremors: Swiss albino mice, single oral dose 100–2000 mg/kg; for lethal dose: oral, mice, body weight, no mortality up to 2000 mg/kg
Description: In vivo acute oral toxicity study and gross behavioral studies of the newly synthesized compounds 4e and 4k is shown in Table 5.
425 using Swiss albino mice (18–22 gm weight) quarantined at animal house at Y.B. Chavan College of Pharmacy, Aurangabad IAEC approval number CPCSEA/IAEC/P’col-52/2015-16/115. Each group consists of six mice (overnight fasted) and kept in colony cage at 25 ± 2 °C with 55% relative humidity and 12 h of light and dark cycle. A specified dose of 100, 250, 500, 750, 1000, 1500 and 2000 mg/kg body weight of mice was administered orally as a single dose. The acute toxic symptoms and the behavioral changes produced by the synthesized compounds were observed continuously for 4 h periods at 8th, 12th and 24th h on set of toxic symptoms and the gross behavioral changes were also recorded. These animals were maintained for further 10 days with observation made daily.

[12] = test system: ergosterol biosynthesis in C. albicans; test: Ergosterol extraction and quantitation assay; format: cell-based, Candida albicans (NCIM-3471); details: at the MIC value (25 µg/mL), C. albicans NCIM3471
Description: A single Candida albicans (NCIM-3471) colony from an overnight Sabouraud dextrose agar plate culture was used to inoculate 50 mL of Sabouraud dextrose broth for control and for various concentrations of the molecules. […] The net weight of the cell pellet was determined. […] Cell suspensions were transferred to sterile borosilicate glass screw-cap tubes and were incubated in an 85 °C water bath for one hour. Following incubation, the tubes were allowed to cool. […] The heptane layer was transferred to a clean borosilicate glass screw-cap tube and stored at −20 °C. […] The absence of detectable ergosterol in extracts was indicated by a flat line.

Compound	MIC [1] [µg/mL]	MIC [2] [µg/mL]	MIC [3] [µg/mL]	MIC [4] [µg/mL]	MIC [5] [µg/mL]	MIC [6] [µg/mL]	MIC [7] [µg/mL]	MIC [8] [µg/mL]	MIC [9] [µg/mL]	MIC [10] [µg/mL]	GI50 [11] [µg/mL]	cell inhibition HeLa [11]	Convulsions (Swiss albino mice)	Deaths (Swiss albino mice)	Diarrhea (Swiss albino mice)	Eye Lacrimation (Swiss albino mice)	Hypnosis (Swiss albino mice)	Muscle Spasms (Swiss albino mice)	Normal Motor Activity (Swiss albino mice)	Pilo Erection (Swiss albino mice)	further results
O=c1oc2ccccc2c(O)c1C(c1ccc(F)cc1F)N(C1CCCCC1)C1CCCCC1 (stereo not drawn) [Compound 4e, 3-((Dicyclohexylamino)(2,4-difluorophenyl)methyl)-4-hydroxy-2H-chromen-2-one]	12 (≈ 25.7 µM)	28 (≈ 59.9 µM)	12 (≈ 25.7 µM)	28 (≈ 59.9 µM)	26 (≈ 55.6 µM)	12 (≈ 25.7 µM)	30 (≈ 64.2 µM)	50 (≈ 107 µM)	48 (≈ 103 µM)	52 (≈ 111 µM)	> 50	did not take place	N	N	N	N	N	N	Y	N	MIC Bacillus subtilis [8]: 50 µg/mL (≈ 107 µM); MIC Escherichia coli [9]: 48 µg/mL (≈ 103 µM); MIC Staphylococcus aureus [10]: 52 µg/mL (≈ 111 µM); Respiration Problems (Swiss albino mice): N; Salivation (Swiss albino mice): N; Sedation (Swiss albino mice): N; Stereotypy (Swiss albino mice): N; Straub Tail (Swiss albino mice): N; Toxicity (Swiss albino mice): N; Tremors (Swiss albino mice): N; lethal dose (Swiss albino mice): above 2000 mg/kg
COc1cc(C(c2c(O)c3ccccc3oc2=O)N(C2CCCCC2)C2CCCCC2)ccc1O (stereo not drawn) [Compound 4k, 3-((Dicyclohexylamino)(4-hydroxy-3-methoxyphenyl)methyl)-4-hydroxy-2H-chromen-2-one]	12 (≈ 25.1 µM)	38 (≈ 79.6 µM)	15 (≈ 31.4 µM)	25 (≈ 52.3 µM)	30 (≈ 62.8 µM)	15 (≈ 31.4 µM)	28 (≈ 58.6 µM)	55 (≈ 115 µM)	55 (≈ 115 µM)	54 (≈ 113 µM)	> 50	did not take place	N	N	N	N	N	N	Y	N	UV sterol profile, ergosterol peak at 281.5 nm [12]: almost a flat curve; Respiration Problems (Swiss albino mice): N; Salivation (Swiss albino mice): N; Sedation (Swiss albino mice): N; Stereotypy (Swiss albino mice): N; Straub Tail (Swiss albino mice): N; Toxicity (Swiss albino mice): N; Tremors (Swiss albino mice): N; lethal dose (Swiss albino mice): above 2000 mg/kg
